Results taken from BindingDB's records for doi:10.1021/jm058033i (University of Regensburg, 2006).

Key:
[1] = Inhibition of DNA synthesis in IL3 dependent FDC-P1 cells expressing wild-type KIT
[2] = Inhibition of DNA synthesis in IL3 dependent FDC-P1 cells expressing KIT V558D mutant
[3] = Antiproliferative activity against mouse 32Dcl3 cell line expressing wild-type FLT3
[4] = Antiproliferative activity against mouse 32Dcl3 cell line expressing FLT3-ITD

## Cc1cccc2[nH]c(C(=O)c3cc4cc(O)ccc4[nH]3)cc12 [(5-Hydroxy-1H-indol-2-yl)-(4-methyl-1H-indol-2-yl)-methanone]
[1]
  IC50: 500 nM
[2]
  IC50: 500 nM

## O=C(c1cc2cc(O)ccc2[nH]1)c1cc2cc(O)ccc2[nH]1 [Bis-(5-hydroxy-1H-indol-2-yl)-methanone]
[1]
  IC50: 500 nM
[3]
  IC50: 100 nM
[2]
  IC50: 500 nM
[4]
  IC50: 100 nM
